Test [1] has as its system STAT1 (phosphorylated at Tyr701) in NCI-H1373 cells. As to the kind of experiment: Phospho-STAT1 (Tyr701) LANCE Ultra TR-FRET Detection Assay. The test is classed as cell-based. As to conditions: Homo sapiens, 48 hours, induction of pSTAT1, normalized to 10 uM positive control and DMSO, 4-parameter fit, read-out: NH1373 pSTAT1 EC50. The method, boiled down:
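Endogenous STAT1 Tyr701 phosphorylation induced by compound was measured after seeding 30,000 cells/well onto compound-spotted plates and incubating 48 h at 37 °C, 5% CO2. Lysates were incubated with a sandwich antibody pair overnight at room temperature, and TR-FRET emission was read at 665 and 620 nm.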
(In general: Time-resolved FRET reads energy transfer from a long-lived donor to a nearby acceptor.)

The target in test [2] is T1, PARP7 (Homo sapiens, UniProt Q7Z3E1).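 Further: MSD light signal quantifying PARP7 captured by a plate-immobilized probe, read after 1.5 h equilibration plus 1.5 h with SULFO-TAG anti-GST antibody at room temperature.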
T1 sequence (Q7Z3E1 1-657): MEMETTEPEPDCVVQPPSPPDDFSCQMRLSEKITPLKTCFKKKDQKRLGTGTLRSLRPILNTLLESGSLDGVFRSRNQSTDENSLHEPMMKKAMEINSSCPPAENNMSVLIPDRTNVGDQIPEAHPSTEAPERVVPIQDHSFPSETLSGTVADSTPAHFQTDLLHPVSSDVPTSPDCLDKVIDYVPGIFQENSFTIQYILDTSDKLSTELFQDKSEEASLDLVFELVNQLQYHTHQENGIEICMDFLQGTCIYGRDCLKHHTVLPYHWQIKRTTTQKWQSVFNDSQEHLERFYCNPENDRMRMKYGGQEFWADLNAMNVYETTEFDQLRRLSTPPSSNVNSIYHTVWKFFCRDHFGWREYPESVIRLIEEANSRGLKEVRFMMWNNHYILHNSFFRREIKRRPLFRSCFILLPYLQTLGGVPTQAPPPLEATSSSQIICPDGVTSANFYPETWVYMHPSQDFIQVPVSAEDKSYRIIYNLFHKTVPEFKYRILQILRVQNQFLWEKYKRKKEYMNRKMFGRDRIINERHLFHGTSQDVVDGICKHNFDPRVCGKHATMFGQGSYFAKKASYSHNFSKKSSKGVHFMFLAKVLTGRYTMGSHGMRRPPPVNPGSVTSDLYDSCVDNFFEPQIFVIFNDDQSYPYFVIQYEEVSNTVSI
As to the kind of experiment: biochemical.
Method: Probe Displacement Assay for PARP7 Displacement of a biotinylated probe (RBN011147; Wigle et al., Cell Chemical Biology, 2020, pp. 877-887) from the PARP7 NAD+-binding site was measured in vitro using a Mesoscale Discovery electrochemiluminescent assay. […] Next, 10 μl of 10 nM PARP7 protein incubated for 1 hour at room temperature with a dose response curve of each test compound in a Greiner LDV polypropylene plate (#781201) is added to the MSD plate containing the immobilized probe. The interaction is allowed to reach equilibrium for 1.5 hours, and then 10 ul of SULFO-TAG labeled anti-GST antibody (Cat #R32AA-1) is added to each well and allowed to incubate for an additional 1.5 hours at room temperature. Finally, 10 μl of MSD read buffer T (4×, Cat. #R92C-1) is added to each well using a Bravo liquid handler to prevent air bubbles in the wells, and the plates are subsequently read in an MSD instrument. Light intensity is then measured to quantify the amount of PARP7 bound to the immobilized probe on the plate.

The structures appear in SMILES notation.

Regarding `CC(C)(CCNc1cc(C(F)(F)F)c(=O)[nH]n1)C(=O)N1CCN(c2ncc(C(F)(F)F)cn2)CC1` [Example 71, 3-[[3,3-dimethyl-4-oxo-4-[4-[5-(trifluoromethyl)pyrimidin-2-yl]piperazin-1-yl]butyl]amino]-5-(trifluoromethyl)-1H-pyridazin-6-one], the EC50 in test [1] was 2560 nM. In test [2], this compound displayed a half-inhibitory concentration (IC50) of 1.33 nM.

For `O=C(N1CCN(c2ncc(C(F)(F)F)cn2)CC1)C(F)(F)CCNc1cc(C(F)(F)F)c(=O)[nH]n1` [Example 72, 3-[[3,3-difluoro-4-oxo-4-[4-[5-(trifluoromethyl)pyrimidin-2-yl]piperazin-1-yl]butyl]amino]-5-(trifluoromethyl)-1H-pyridazin-6-one], the EC50 in test [1] was found to be 206 nM. In test [2], this compound showed an IC50 of 0.497 nM.

`O=C(CCNCc1cc(C(F)(F)F)c(=O)[nH]n1)N1CCN(c2ncc(C(F)(F)F)cn2)CC1` [Example 73, 6-(((3-oxo-3-(4-(5-(trifluoromethyl)pyrimidin-2-yl)piperazin-1-yl)propyl)amino)methyl)-4-(trifluoromethyl)pyridazin-3(2H)-one]: the 50% effective concentration (EC50) in test [1] was 2030 nM. In test [2], this compound returned an IC50 of 1.79 nM.

Turning to `O=C([C@@H]1CN(Cc2cc(C(F)(F)F)c(=O)[nH]n2)CCO1)N1CCN(c2ncc(C(F)(F)F)cn2)CC1` [Example 74, 5-(trifluoromethyl)-3-[[(2S)-2-[4-[5-(trifluoromethyl)pyrimidin-2-yl]piperazine-1-carbonyl]morpholin-4-yl]methyl]-1H-pyridazin-6-one], the EC50 in test [1] came out at 1790 nM. In test [2], this compound displayed an IC50 of 2.01 nM.

Regarding `O=C([C@H]1CN(Cc2cc(C(F)(F)F)c(=O)[nH]n2)CCO1)N1CCN(c2ncc(C(F)(F)F)cn2)CC1` [Example 75, 5-(trifluoromethyl)-3-[[(2R)-2-[4-[5-(trifluoromethyl)pyrimidin-2-yl]piperazine-1-carbonyl]morpholin-4-yl]methyl]-1H-pyridazin-6-one], the 50% effective concentration (EC50) in test [1] came to 1350 nM. Further, in test [2], the 50% inhibitory concentration (IC50) came out at 5.12 nM.

As to `O=C(CCC[C@@H]1CCc2c1n[nH]c(=O)c2C(F)(F)F)N1CCN(c2ncc(C(F)(F)F)cn2)CC1` [Example 78, (R)-7-(4-oxo-4-(4-(5-(trifluoromethyl)pyrimidin-2-yl)piperazin-1-yl)butyl)-4-(trifluoromethyl)-2,5,6,7-tetrahydro-3H-cyclopenta[c]pyridazin-3-one], the EC50 in test [1] is 24.1 nM. In test [2], the midpoint of inhibition, the IC50, lay at 0.142 nM.

Consider `O=C(CCC[C@H]1CCc2c1n[nH]c(=O)c2C(F)(F)F)N1CCN(c2ncc(C(F)(F)F)cn2)CC1` [Example 79, (S)-7-(4-oxo-4-(4-(5-(trifluoromethyl)pyrimidin-2-yl)piperazin-1-yl)butyl)-4-(trifluoromethyl)-2,5,6,7-tetrahydro-3H-cyclopenta[c]pyridazin-3-one], for which, in test [1], the EC50 was 316 nM. The same compound showed a half-maximal inhibitory concentration (IC50) in test [2] of 2.71 nM.

As a reminder, the EC50 is the concentration needed to bring the measured effect to its halfway point. As a reminder, the IC50 is the point on the concentration scale where inhibition reaches its midpoint. The low end stands for greater potency, the high end for weaker potency.

These data come from patent publication US20230183216A1, “PYRIDIZIN-3(2H)-ONE DERIVATIVES” (Gilead Sciences, Inc., priority 2021, published 2023).
